Assay [1] addresses rat brain cortical membranes ([35S]-TBPS binding). The experiment in a line: Steroid inhibition of [35S]-TBPS binding (radioligand displacement). As to conditions: 3 nM [35S]-TBPS, in the presence of 5 μM GABA. A general note: In a radioligand displacement assay an active substance lowers the binding of a labelled ligand.
Assay [2] deals with T1, GABAA receptors α1β2γ2 (Homo sapiens, UniProt P14867+P47870).
T1 construct: expressed in transfected cells; host or cells: LTK (Ltk) cells, stably transfected
T1 sequence (P14867 28-456): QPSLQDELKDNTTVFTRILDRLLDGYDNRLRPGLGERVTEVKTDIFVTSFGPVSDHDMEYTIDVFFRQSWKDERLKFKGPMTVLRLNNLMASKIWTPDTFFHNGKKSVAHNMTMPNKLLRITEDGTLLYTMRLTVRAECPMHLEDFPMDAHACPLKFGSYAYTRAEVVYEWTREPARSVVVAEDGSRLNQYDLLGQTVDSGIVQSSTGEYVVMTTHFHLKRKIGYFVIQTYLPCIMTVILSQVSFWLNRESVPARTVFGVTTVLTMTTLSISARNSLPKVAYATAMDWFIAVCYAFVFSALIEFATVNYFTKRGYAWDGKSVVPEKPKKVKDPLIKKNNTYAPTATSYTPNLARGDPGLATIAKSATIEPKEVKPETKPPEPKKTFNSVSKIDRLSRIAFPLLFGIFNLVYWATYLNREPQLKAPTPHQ
T1 sequence (P47870 25-512 limits assumed): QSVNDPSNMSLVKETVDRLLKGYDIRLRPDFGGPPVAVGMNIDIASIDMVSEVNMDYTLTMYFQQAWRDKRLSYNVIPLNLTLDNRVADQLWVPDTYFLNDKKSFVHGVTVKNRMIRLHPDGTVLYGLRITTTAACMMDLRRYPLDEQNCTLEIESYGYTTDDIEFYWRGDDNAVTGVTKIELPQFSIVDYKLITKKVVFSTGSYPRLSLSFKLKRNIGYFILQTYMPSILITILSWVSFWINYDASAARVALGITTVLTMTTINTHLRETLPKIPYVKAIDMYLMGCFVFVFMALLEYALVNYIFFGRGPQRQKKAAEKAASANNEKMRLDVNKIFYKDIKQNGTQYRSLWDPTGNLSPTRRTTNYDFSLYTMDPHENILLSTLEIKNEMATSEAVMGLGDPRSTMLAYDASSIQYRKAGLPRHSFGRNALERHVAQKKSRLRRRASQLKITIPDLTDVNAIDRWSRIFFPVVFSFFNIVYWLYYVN
T1 sequence (P18507 40-475 partner): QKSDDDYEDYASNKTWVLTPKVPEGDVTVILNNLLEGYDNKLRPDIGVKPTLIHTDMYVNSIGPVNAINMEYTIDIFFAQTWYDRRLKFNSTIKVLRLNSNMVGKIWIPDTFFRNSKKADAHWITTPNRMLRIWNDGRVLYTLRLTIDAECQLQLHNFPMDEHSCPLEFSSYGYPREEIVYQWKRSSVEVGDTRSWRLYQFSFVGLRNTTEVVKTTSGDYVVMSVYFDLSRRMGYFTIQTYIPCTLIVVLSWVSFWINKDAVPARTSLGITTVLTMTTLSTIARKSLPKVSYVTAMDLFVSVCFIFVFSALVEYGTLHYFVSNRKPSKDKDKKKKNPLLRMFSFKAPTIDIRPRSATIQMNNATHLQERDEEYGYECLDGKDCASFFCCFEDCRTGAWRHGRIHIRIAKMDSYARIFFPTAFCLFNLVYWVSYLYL
Description: Patch clamp electrophysiology (QPatch) of recombinant GABAA receptors in Ltk cells. Type of assay: cell-based. Conditions: 10 μM test article, 2 μM GABA (EC20), Ltk cells stably transfected with α1β2γ2, relative percentage potentiation; read-out: GABA (α1β2γ2) Qpatch in Ltk, % efficacy at 10 μM. As to the method: Patch Clamp Electrophysiology of Recombinant α1β2γ2 and α4β3δ GABAA Receptors
Cellular electrophysiology is used to measure the pharmacological properties of our GABAA receptor modulators in heterologous cell systems. Each compound is tested for its ability to affect GABA mediated currents at a submaximal agonist dose (GABA EC20=2 μM). LTK cells are stably transfected with the α1β2γ2 subunits of the GABA receptor and CHO cells are transiently transfected with the α4β3δ subunits via the Lipofecatamine method. Cells were passaged at a confluence of about 50-80% and then seeded onto 35 mm sterile culture dishes containing 2 ml culture complete medium without antibiotics or antimycotics. Confluent clusters of cells are electrically coupled (Pritchett et al., Science, 1988, 242, 1306-1308). Because responses in distant cells are not adequately voltage clamped and because of uncertainties about the extent of coupling (Verdoorn et al., Neuron 1990, 4, 919-928), cells were cultivated at a density that enables the recording of single cells (without visible connections to other cells).
Whole cell currents were measured with HEKA EPC-10 amplifiers using PatchMaster software or by using the high throughput QPatch platform (Sophion). Bath solution for all experiments contained (in mM): NaCl 137 mM, KCl 4 mM, CaCl2 1.8 mM, MgCl2 1 mM, HEPES 10 mM, D-Glucose 10 mM, pH (NaOH) 7.4. […]
(In patch-clamp work, channel activity is measured electrically.)

Experimental findings from patent US11945836B2, “Compositions and methods for treating CNS disorders” (Sage Therapeutics, Inc., priority 2014, dated 2024) are described below.

Broadly, the IC50 is the point on the concentration scale where inhibition reaches its midpoint. For the compound `C[C@@]1(O)CC[C@H]2[C@H](CC[C@@H]3[C@@H]2CC[C@]2(C)[C@@H](C(=O)c4ccccc4)CC[C@@H]32)C1` [Compound 1], the 50% inhibitory concentration (IC50) in assay [1] is below 20 nM. For the same compound, the Emax at 10 µM in assay [2] was above 500%. As for `C[C@@]1(O)CC[C@H]2[C@H](CC[C@@H]3[C@@H]2CC[C@]2(C)[C@@H](C(=O)c4nc5ccccc5s4)CC[C@@H]32)C1` [Compound 8], the IC50 in assay [1] was above 100 nM. Further, in assay [2], the Emax at 10 µM is 100 to 500%.

Take `COc1ccc(C(=O)[C@H]2CC[C@H]3[C@@H]4CC[C@H]5C[C@](C)(O)CC[C@]5(C)[C@H]4CC[C@]23C)c(C)c1` [Compound 132]: the half-inhibitory concentration (IC50) in assay [1] was above 100 nM. The same measure, in the same setting: under `C[C@@]1(O)CC[C@@]2(C)[C@@H](CC[C@@H]3[C@@H]2CC[C@]2(C)[C@@H](C(=O)c4ccc5c(c4)OCO5)CC[C@@H]32)C1` [Compound 133] stands above 100 nM; under `CCc1ccc(C(=O)[C@H]2CC[C@H]3[C@@H]4CC[C@H]5C[C@](C)(O)CC[C@]5(C)[C@H]4CC[C@]23C)cc1` [Compound 134], above 100 nM. On the same count and under the same terms, under `Cc1cc(C)cc(C(=O)[C@H]2CC[C@H]3[C@@H]4CC[C@H]5C[C@](C)(O)CC[C@]5(C)[C@H]4CC[C@]23C)c1` [Compound 135] stands above 100 nM; under `C[C@@]1(O)CC[C@H]2[C@H](CC[C@@H]3[C@@H]2CC[C@]2(C)[C@@H](C(=O)c4cc(F)cc(F)c4)CC[C@@H]32)C1` [Compound 136, (3,5-difluorophenyl)((3R,5R,8R,9R,10S,13S,14S,17S)-3-hydroxy-3,13-dimethylhexadecahydro-1H-cyclopenta[a]phenanthren-17-yl)methanone], 20 to 50 nM. For the compound `Cc1cc(C(=O)[C@H]2CC[C@H]3[C@@H]4CC[C@@H]5C[C@](C)(O)CC[C@]5(C)[C@H]4CC[C@]23C)ccc1F` [Compound 137], in assay [1], the IC50 lay in the range of 20 to 50 nM.
